Experimental data: patent publication US10369153B2, “Pyrrolopyrimidine compounds and uses thereof” (HUTCHISON MEDIPHARMA LIMITED, priority 2010, dated 2019)

Tests used:
[1] = target: Recombinant human JAK1 catalytic domain (Homo sapiens (Human), UniProt P23458); assay: JAK1 kinase assay (Z'-LYTE, Tyr 6 Peptide); type: biochemical; details: 0.3 uM concentration, read-out: inhibition percentage (IR %)
Method: JAK1/2/3 kinase assay are performed in vitro using Kit-Tyr 6 Peptide (Invitrogen, Cat. No. PV4122). TYK2 kinase assay are performed in vitro using Z′-LYTE™ Kinase Assay Kit-Tyr 3 Peptide (Invitrogen, Cat. No. PV3192). […] All compounds are initially tested at 8 different concentrations (1 μM down to 0.0003 μM) using a 1:3 serial dilution scheme.

[2] = system: IL-6-induced STAT3 phosphorylation; assay: IL-6-induced STAT3 phosphorylation in HepG2 cells; type: cell-based; details: Homo sapiens, IL-6 stimulation, read-out: pSTAT3 IC50
Method: For the determination of IL-6-induced STAT3 phosphorylation, HepG2 cells (SIBS) are seeded in 96 well plates at 5.4×10^3 cells per well in Serum Free DMEM media overnight and incubated in the presence or absence of various concentrations of diluted compound for 30 min at 37° C., 5% CO2. Cells were stimulated by adding 10 ng/ml human recombinant IL-6 to each well for 15 minutes at 37° C., 5% CO2. Cells are then fixed in 2% paraformaldehyde for 45 minutes at room temperature and incubated in ice-cold methanol for 30 minutes. After washing in PBS, cells are incubated with rabbit anti-phospho-STAT3 (Y705) (Cell Signaling Technologies, 1:1000 in antibody dilution solution) primary antibody overnight at 4° C. Goat anti-rabbit IgG Alexa 488 (Invitrogen, 1:1,000 dilution in PBS) secondary antibody is added for 90 minutes prior to PBS washes. Cells are counted following incubation in a 7.5 uM propidium iodide, 100 μg/ml RNaseA, PBS solution for 60 minutes in the dark. Plates are read on an Acumen X3 instrument (TPP Labtech).
(§1) Percent inhibition is calculated using the following formula: Inhibition (%)=100−((inhibitor treatment−cell)/(stimulator−cell))×100 […]

[3] = system: IL-3-induced STAT5 phosphorylation; assay: IL-3-induced STAT5 phosphorylation in TF-1 cells; type: cell-based; details: Homo sapiens, IL-3 stimulation, read-out: pSTAT5 IC50
Method: For the determination of IL-3-induced STAT5 phosphorylation, TF-1 cells (ATCC) are plated in 96 well plates at 1×10^4 cells per well in 10% FBS RPMI-1640 media at 37° C., 5% CO2 for 3 hours. Cells were incubated in the presence or absence of various concentrations of diluted compound for 30 min at 37° C., 5% CO2. Cells were stimulated by adding 10 ng/ml human recombinant IL-3 to each well for 30 minutes at 37° C., 5% CO2. Cells are then fixed in 2% paraformaldehyde for 45 minutes at room temperature and incubated in ice-cold methanol for 30 minutes. After washing in PBS, cells are incubated with rabbit anti-phospho-STAT5 (Y694) (Cell Signaling Technologies, 1:1000 in antibody dilution solution) primary antibody overnight at 4° C. Goat anti-rabbit IgG Alexa 488 (Invitrogen, 1:1,000 dilution in PBS) secondary antibody is added for 90 minutes prior to PBS washes. Cells are counted following incubation in a 7.5 uM propidium iodide, 100 μg/ml RNaseA, PBS solution for 60 minutes in the dark. Plates are read on an Acumen X3 instrument (TPP Labtech).
as §1

Sequence of Recombinant human JAK1 catalytic domain (P23458 875-1153): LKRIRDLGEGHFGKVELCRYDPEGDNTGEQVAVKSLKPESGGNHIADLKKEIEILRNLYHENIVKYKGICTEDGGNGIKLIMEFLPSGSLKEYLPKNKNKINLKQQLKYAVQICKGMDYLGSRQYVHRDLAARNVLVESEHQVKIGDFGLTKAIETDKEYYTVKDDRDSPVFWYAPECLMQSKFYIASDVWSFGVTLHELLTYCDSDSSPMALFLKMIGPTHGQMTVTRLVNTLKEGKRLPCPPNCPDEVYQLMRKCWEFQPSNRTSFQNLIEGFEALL

| Compound | inhibition at 0.3 µM [1] | IC50 [2] | IC50 [3] |
| --- | --- | --- | --- |
| CN(C(=O)c1ccc(N(C)[C@@H]2CCN(c3ncnc4[nH]ccc34)C2)nc1)[C@@H](CO)c1ccccc1 [Compound 200] | 20 to 50% | – | – |
| CN(c1ccc(C(=O)Nc2nccs2)cn1)[C@@H]1CCN(c2ncnc3[nH]ccc23)C1 [Compound 199] | 50 to 100% | 50 nM | 7.55 µM |
| CN(c1ccc(C(=O)N[C@@H](CO)c2ccccc2)cn1)[C@@H]1CCN(c2ncnc3[nH]ccc23)C1 [Compound 176] | 50 to 100% | – | – |
